Laboratory results as given in US20240058324A1, “COMPOSITION FOR PREVENTION AND TREATING DEMENTIA THROUGH THE COMBINATION OF PDE5 INHIBITORS AND GLUCOCORTICOID RECEPTOR ANTAGONISTS” (ARIBIO CO., LTD., priority 2021, published 2024).

Key:
[1] = system: TNF-α; assay: Real time RT-qPCR of pro-inflammatory cytokine TNF-α in LPS-treated IMG microglia cells; assay type: cell-based, mouse; conditions: LPS 100 ng/ml
Description: (§1) The IMG cells, a mouse microglia cell line used in the experiments, were cultured, and maintained in DMEM complete medium (HyClone) containing 10% fetal bovine serum (FBS; Australian Orgin, HyClone, Logan, UT, USA) and 1% penicillin/streptomycin (P/S; HyClone) at 37° C. with 5% CO2 in a humidified CO2 incubator (311-TIF, Thermo Fisher Scientific Forma, MA, USA). Total 2×10^5 cells were seeded in each well of the 6-well plate and they were incubated for 24 h in the humidified CO2 incubator as mentioned above. Further, 100 ng/ml of LPS and the drugs, AR1001 2 μM and GR modulator (CORT-108297) 6, 12, 24, 36, 48 μM were treated individually or in combination.
(§2) The cells were scraped using a cell scraper, and 2 mL of the culture solution was collected in a 15 mL conical tube, It was centrifuged at 3,000 RPM for 5 min and the supernatant (culture solution) was discarded. The pellet was resuspended in 1 mL of Trizol and it was transferred to 1.5 mL microfuge tube. Further, 0.2 mL of chloroform was added and it was vortexed for 1 min. The microfuge tube was kept in a stand for 2 min at room temperature. After centrifugation at 12,000×g for 10 min at 4° C., the supernatant (approx 500 μL) separated in a fresh microfuge tube. Equal volume of isopropanol was added to the supernatant and mixed the solution well. It was put in the microfuge tube stand for 10 min at room temperature and thereafter, centrifuged at 12,000×g for 10 min at 4° C. The supernatant was discarded and the pellet was washed twice with 75% ethanol. The RNA pellet was dried and dissolved in 10 μL DEPC treated water. After quantification of the RNA, it was converted to cDNA following the PrimeScript™ II 1st strand cDNA Synthesis Kit (Takara) protocol.
(§3) The sample cDNAs were amplified with gene specific primers and SYBR green PCR master mix (ThermoFisher) in the model Quant Studio 5 Thermal cycler (Applied biosystems). The amplification conditions were as follows—polymerase activation at 50° C. for 2 min, predenaturation preceding at 95° C. for 10 min, total 40 cycles of denaturation at 95° C. for 15 sec, annealing at 60° C. for 30 sec and extension at 72° C. for 30 sec. The specific primer sequences are mentioned in Table-1.

[2] = system: IL-1β; assay: Real time RT-qPCR of pro-inflammatory cytokine IL-1β in LPS-treated IMG microglia cells; assay type: cell-based, mouse; conditions: LPS 100 ng/ml
Description: as §1, §2, §3

[3] = system: Aβ42; assay: Amyloid Beta 42 Human ELISA, amount of Aβ42 in RA-differentiated SH-SY5Y cells treated with Aβ1-42 oligomer; assay type: cell-based; conditions: 24 h
Description: To determine the amount of change in amyloid beta, […] cells were dispensed into T-25 flask.
For cell adhesion and stabilization, cells were incubated for 24 hours in DMEM/F12 Complete Medium (HyClone) containing 10% FBS (HyClone) and 1% P/S (HyClone) at 37° C. under 5% CO2 condition in a CO2 incubator (Thermo Fisher Scientific Forma).
After 24 hours of cell dispensing, the cell culture medium is removed for neuron-like differentiation, and replaced with DMEM/F12 differentiation media containing 1% FBS (HyClone), 1% P/S (HyClone), 10 μM all-trans-retinoic acid (RA; Sigma--Aldrich, St. Louis, MO, USA).
On the third day of differentiation, the medium was replaced with a new DMEM/F12 differentiation medium. On the sixth day of differentiation, the medium of the untreated control group was replaced with a new DMEM/F12 differentiation medium and the medium of the sample treatment group was replaced with a various conditions by adding a new DMEM/F12 differentiation medium under various conditions.
Human Aβ1-42 (Abeam, Cambridge, MA, USA) was added upto 10 μM to DMEM/F12 Complete Medium (HyClone) containing 1% FBS (HyClone) and 1% P/S (HyClone) to form Aβ1-42 oligomer and left for 3 hours in a CO2 incubator (Thermo Fisher Scientific Forma) under 37° C. and 5% CO2 conditions to form Aβ1-42 oligomer.
In order to confirm the Aβ 1-42 change, the existing cell culture medium was removed from the RA-differentiated SH-SY5Y neuron-like cells, replaced with DMEM/F12 Complete Medium (HyClone) containing Aβ1-42 oligomer ([…] Fisher Scientific Forma) at 37° C. under 5% CO2 conditions to induce Aβ1-42 oligomer-induced cell damage.
In order to measure the amount of Aβ42 (pg/mL) in the cell, the cells were recovered and treated with the cell lysis buffer.
Thereafter, after centrifugation at 14,000 rpm 4° C. for 10 minutes, the supernatant was transferred to recover the protein. The amount of protein was quantified using the Pierce™ BCA Protein Assay Kit (Thermo Fisher Scientific). Then, the amount of Aβ42 in cells was measured using a Human Aβ42 ELISA Kit (Invitrogen).

[4] = CORT-108297 0.1 μM alone, SH-SY5Y, Aβ 10 μM
[5] = CORT-108297 0.3 μM alone, SH-SY5Y, Aβ 10 μM
[6] = CORT-108297 0.6 μM alone, SH-SY5Y, Aβ 10 μM
[7] = CORT-108297 1.2 μM alone, SH-SY5Y, Aβ 10 μM
[8] = CORT-108297 1.8 μM alone, SH-SY5Y, Aβ 10 μM
[9] = CORT-108297 2.4 μM alone, SH-SY5Y, Aβ 10 μM
[10] = CORT-108297 3.0 μM alone, SH-SY5Y, Aβ 10 μM

CCCOc1ccc(S(=O)(=O)N2CCN(CCO)CC2)cc1-c1nc2c(CCC)cn(CC)c2c(=O)[nH]1 [AR1001, mirodenafil]
TNFα Reduction (%) ([1]; AR1001 2 μM alone): 8.58%
IL1β Reduction (%) ([2]; AR1001 2 μM alone): 4.70%
Aβ42 concentration Average concentration ([3]; AR1001 0.1 μM alone, SH-SY5Y neuron-like cells, Aβ1-42 oligomer 10 μM): 46.45 pg/mL
Aβ42 Reduction rate Average reduction rate ([3]; AR1001 0.1 μM alone, SH-SY5Y, Aβ 10 μM): 1.77%

CCOC[C@]12Cc3cnn(-c4ccc(F)cc4)c3C=C1CCN(S(=O)(=O)c1ccc(C(F)(F)F)cc1)C2 [CORT-108297]
TNFα Reduction (%) ([1]; CORT-108297 6 μM alone): 9.41%
TNFα Reduction (%) ([1]; CORT-108297 12 μM alone): 15.52%
TNFα Reduction (%) ([1]; CORT-108297 24 μM alone): 23.86%
TNFα Reduction (%) ([1]; CORT-108297 36 μM alone): 37.30%
TNFα Reduction (%) ([1]; CORT-108297 48 μM alone): 52.51%
IL1β Reduction (%) ([2]; CORT-108297 6 μM alone): 7.02%
IL1β Reduction (%) ([2]; CORT-108297 12 μM alone): 8.38%
IL1β Reduction (%) ([2]; CORT-108297 24 μM alone): 17.88%
IL1β Reduction (%) ([2]; CORT-108297 36 μM alone): 35.86%
IL1β Reduction (%) ([2]; CORT-108297 48 μM alone): 57.37%
Aβ42 Reduction rate Average reduction rate [3, 4]: 4.26%
Aβ42 concentration Average concentration [3, 4]: 45.40 pg/mL
Aβ42 Reduction rate Average reduction rate [3, 5]: 4.24%
Aβ42 concentration Average concentration [3, 5]: 45.40 pg/mL
Aβ42 Reduction rate Average reduction rate [3, 6]: 6.88%
Aβ42 concentration Average concentration [3, 6]: 44.29 pg/mL
Aβ42 Reduction rate Average reduction rate [3, 7]: 9.34%
Aβ42 concentration Average concentration [3, 7]: 43.25 pg/mL
Aβ42 Reduction rate Average reduction rate [3, 8]: 11.97%
Aβ42 concentration Average concentration [3, 8]: 42.14 pg/mL
Aβ42 Reduction rate Average reduction rate [3, 9]: 17.91%
Aβ42 concentration Average concentration [3, 9]: 39.64 pg/mL
Aβ42 Reduction rate Average reduction rate [3, 10]: 31.34%
Aβ42 concentration Average concentration [3, 10]: 33.97 pg/mL
